Data: US7935706B2, “Nitrogen-containing heterocycle derivatives substituted with cyclic group” (Shionogi & Co., Ltd., priority 2006, dated 2011)
Like-named read-outs stand apart in the source and are kept apart here.

Tests used:
[1] = molecular target: T1, NMDA receptor (NR1 subunit and NR2B subunit) (Mus musculus, UniProt P35438+Q01097); assay: Measurement of expression of NMDA receptor and Ca ion influx amount (glutamic acid/glycine-induced, HEK293 cell co-expressing NR1 and NR2B subunits, Fluo-3/AM); assay type: cell-based
T1 construct: expressed in transfected cells; host or cells: HEK293 cells, transient transfection with pcDNA3.1 plasmids
Method: Measurement of Expression of NMDA Receptor and Ca Ion Influx Amount
A complementary DNA (cDNA) of a mouse NMDA receptor subunit was transiently introduced into a HEK293 cell and, after 1 day from introduction, change in a glutamic acid/glycine-induced intracelluar Ca amount was measured using a Ca ion reactive fluorescent coloring matter.
The HEK293 cell was cultured, and passaged using a modified Dulbecco's Eagle medium (DMEM, low glucose).
The HEK293 cell (20,000/well) was seeded on a 96-well plate, a NR1 subunit and a NR2B subunit of the NMDA receptor incorporated into the pcDNA3.1 plasmid were transiently introduced into a cell, and the subunits were co-expressed. An introduction amount of a DNA was 0.025 μg in the case of the NR1 subunit, and 0.075 μg in the case of NR2B subunit per well. For the cell after introduction, cell death was inhibited using 50 μM of the NMDA receptor antagonist MK-801.
For adjusting a test compound and washing a cell, Krebs/Ringer/Hepes buffer (KRH, Ca: 5 mM) was used.
After 1 day from introduction, the NMDA receptor antagonist MK-801 was washed out using the KRH buffer, and a Ca ion indication fluorescent coloring matter Fluo-3/AM was made to be taken into the cell. Ca ion influx was induced with 20 μM glutamic acid/2 μM glycine. Change in a fluorescent amount due to Ca ion influx into the cell was measured at excitation of 480 nm using a fluorescent imaging system FDSS 3000.
From a measured value of the test compound, a Ca ion influx inhibition rate (%) was obtained by the following equation, and a dose at which influx is inhibited 50% (IC50) was calculated.
Ca ion influx inhibition rate(%)=100−[(fluorescent amount in the presence of test compound−background fluorescent amount)/(total fluorescent amount−background fluorescent)]×100

[2] = molecular target: T2, NR1/NR2B receptor (Rattus norvegicus, UniProt P35439+Q00960); assay: Test of binding with NMDA receptor (NR1/NR2B receptor): competition with [3H]-Ifenprodil on rat cerebral cortex membrane specimen
T2 construct: from tissue; host or cells: rat cerebral cortex membranes (male Slc: Wistar rat)
Method: Test of Binding with NMDR Receptor (NR1/NR2B Receptor)
Using Ifenprodil which is an antagonist specific for a NR1/NR2B subtype receptor as a ligand, an experiment of competition between a receptor and a test compound was performed.
Using a male Slc: Wistar rat as an animal, a brain was isolated after decapitation, and a cerebral cortex was fractionated. The cerebral cortex was homogenized with a 20-fold amount of an ice-cooled 50 mM Tris/HCl buffer (pH 7.4), and the homogenate was centrifuged at 4° C. and 27,500×g for 10 minutes. The resulting precipitate was suspended in the same buffer, and this was again centrifuged. This operation was repeated for three times, the resulting precipitate was suspended in a buffer, and this was stored at −80° C. Immediately before an experiment, the frozen suspension was thawed at room temperature, this was centrifuged at 4° C. and 27,500×g for 10 minutes, and the resulting precipitate was suspended in a buffer. Further, the suspension was diluted 10-fold with a buffer, and this was used as a membrane specimen in an experiment. In a binding experiment, to 470 μl of the membrane specimen were added […] of each of test compounds having different concentrations, 10 μl of a labeled ligand [^3H]-Ifenprodil and 10 μl GBR-12909, followed by incubation at an ice temperature for 120 minutes. A concentration of [^3H]-Ifenprodil of the labeled ligand was finally 5 nM, and a concentration of GBR-12909 was finally 3 μM. For measuring a total binding amount, DMSO as a solvent was used and, for measuring a non-specific binding amount, 100 μM Ifenprodil was used. GBR-12909 was added in order to block binding of [^3H]-Ifenprodil to non-polyamine-sensitive site. After incubation, a bound formand a free foramwere separated using Whatman GF/C filter (manufactured by Whatman), and the filter was washed with 2.5 ml ice-cooled buffer four times. The filter was immersed in liquid scintillation (Cryasol I, manufactured by Nacalai tesque), and radioactivity (dpm) was measured with a liquid scintillation counter. From a measured value, a binding inhibition rate (%) was obtained by the following equation, and a dose at which binding is inhibited 50% (IC50) was calculated. A formula of GBR-12909 (vanoxerine) is shown below.
Binding inhibition rate(%)=100−[(binding amount in the presence of test compound−non-specific binding amount)/(total binding amount−non-specific binding amount)]×100

[3] = Ca ion influx induced with 20 μM glutamic acid/2 μM glycine, HEK293 cell with mouse NR1/NR2B, read-out: Ca2+ IC50
[4] = [3H]-Ifenprodil 5 nM, GBR-12909 3 μM, rat cerebral cortex membranes, ice temperature 120 minutes, read-out: NR2B (IC50 μM)
[5] = same binding test, read-out: IC50 (binding with NR1/NR2B receptor)
[6] = same Ca ion influx test, read-out: IC50 (Ca ion influx inhibition)

T2 sequence (Q00960 27-1482, other chains not shown): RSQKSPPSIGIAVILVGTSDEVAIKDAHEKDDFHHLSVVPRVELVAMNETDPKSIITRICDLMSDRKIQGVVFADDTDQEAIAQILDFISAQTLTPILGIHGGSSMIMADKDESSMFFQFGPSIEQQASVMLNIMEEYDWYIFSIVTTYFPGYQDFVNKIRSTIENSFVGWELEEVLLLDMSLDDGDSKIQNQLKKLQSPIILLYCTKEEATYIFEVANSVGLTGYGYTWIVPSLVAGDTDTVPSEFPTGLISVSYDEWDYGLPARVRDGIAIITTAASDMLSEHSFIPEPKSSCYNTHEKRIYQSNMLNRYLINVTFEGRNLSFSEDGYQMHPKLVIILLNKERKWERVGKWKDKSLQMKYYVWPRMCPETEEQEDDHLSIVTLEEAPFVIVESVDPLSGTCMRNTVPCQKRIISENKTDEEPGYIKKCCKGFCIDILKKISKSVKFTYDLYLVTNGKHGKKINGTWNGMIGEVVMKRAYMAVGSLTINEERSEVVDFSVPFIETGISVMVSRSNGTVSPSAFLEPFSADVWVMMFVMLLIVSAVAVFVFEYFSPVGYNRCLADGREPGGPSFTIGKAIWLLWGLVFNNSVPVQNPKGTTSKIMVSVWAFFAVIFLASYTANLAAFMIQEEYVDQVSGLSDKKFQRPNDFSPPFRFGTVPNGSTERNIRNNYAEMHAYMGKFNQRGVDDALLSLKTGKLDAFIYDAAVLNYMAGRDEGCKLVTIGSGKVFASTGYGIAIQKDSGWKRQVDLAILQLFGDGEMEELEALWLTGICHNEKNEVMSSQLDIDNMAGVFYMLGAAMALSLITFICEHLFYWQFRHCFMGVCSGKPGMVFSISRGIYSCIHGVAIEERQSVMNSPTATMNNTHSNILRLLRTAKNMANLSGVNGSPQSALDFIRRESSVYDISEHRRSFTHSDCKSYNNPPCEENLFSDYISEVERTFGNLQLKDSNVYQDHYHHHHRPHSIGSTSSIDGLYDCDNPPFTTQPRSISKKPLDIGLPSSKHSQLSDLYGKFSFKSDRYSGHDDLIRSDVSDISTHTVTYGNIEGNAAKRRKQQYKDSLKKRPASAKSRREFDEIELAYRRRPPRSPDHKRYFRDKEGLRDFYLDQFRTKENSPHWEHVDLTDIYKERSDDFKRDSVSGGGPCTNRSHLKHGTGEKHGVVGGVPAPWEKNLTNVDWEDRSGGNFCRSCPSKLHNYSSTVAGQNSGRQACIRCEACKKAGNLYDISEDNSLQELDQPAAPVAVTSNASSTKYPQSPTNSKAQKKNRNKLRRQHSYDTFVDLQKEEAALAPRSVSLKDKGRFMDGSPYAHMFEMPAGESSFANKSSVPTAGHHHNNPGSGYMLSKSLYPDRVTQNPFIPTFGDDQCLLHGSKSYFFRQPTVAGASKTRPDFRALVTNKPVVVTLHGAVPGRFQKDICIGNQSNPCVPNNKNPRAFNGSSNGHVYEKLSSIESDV
T1 sequence (Q01097 27-1482, other chains not shown): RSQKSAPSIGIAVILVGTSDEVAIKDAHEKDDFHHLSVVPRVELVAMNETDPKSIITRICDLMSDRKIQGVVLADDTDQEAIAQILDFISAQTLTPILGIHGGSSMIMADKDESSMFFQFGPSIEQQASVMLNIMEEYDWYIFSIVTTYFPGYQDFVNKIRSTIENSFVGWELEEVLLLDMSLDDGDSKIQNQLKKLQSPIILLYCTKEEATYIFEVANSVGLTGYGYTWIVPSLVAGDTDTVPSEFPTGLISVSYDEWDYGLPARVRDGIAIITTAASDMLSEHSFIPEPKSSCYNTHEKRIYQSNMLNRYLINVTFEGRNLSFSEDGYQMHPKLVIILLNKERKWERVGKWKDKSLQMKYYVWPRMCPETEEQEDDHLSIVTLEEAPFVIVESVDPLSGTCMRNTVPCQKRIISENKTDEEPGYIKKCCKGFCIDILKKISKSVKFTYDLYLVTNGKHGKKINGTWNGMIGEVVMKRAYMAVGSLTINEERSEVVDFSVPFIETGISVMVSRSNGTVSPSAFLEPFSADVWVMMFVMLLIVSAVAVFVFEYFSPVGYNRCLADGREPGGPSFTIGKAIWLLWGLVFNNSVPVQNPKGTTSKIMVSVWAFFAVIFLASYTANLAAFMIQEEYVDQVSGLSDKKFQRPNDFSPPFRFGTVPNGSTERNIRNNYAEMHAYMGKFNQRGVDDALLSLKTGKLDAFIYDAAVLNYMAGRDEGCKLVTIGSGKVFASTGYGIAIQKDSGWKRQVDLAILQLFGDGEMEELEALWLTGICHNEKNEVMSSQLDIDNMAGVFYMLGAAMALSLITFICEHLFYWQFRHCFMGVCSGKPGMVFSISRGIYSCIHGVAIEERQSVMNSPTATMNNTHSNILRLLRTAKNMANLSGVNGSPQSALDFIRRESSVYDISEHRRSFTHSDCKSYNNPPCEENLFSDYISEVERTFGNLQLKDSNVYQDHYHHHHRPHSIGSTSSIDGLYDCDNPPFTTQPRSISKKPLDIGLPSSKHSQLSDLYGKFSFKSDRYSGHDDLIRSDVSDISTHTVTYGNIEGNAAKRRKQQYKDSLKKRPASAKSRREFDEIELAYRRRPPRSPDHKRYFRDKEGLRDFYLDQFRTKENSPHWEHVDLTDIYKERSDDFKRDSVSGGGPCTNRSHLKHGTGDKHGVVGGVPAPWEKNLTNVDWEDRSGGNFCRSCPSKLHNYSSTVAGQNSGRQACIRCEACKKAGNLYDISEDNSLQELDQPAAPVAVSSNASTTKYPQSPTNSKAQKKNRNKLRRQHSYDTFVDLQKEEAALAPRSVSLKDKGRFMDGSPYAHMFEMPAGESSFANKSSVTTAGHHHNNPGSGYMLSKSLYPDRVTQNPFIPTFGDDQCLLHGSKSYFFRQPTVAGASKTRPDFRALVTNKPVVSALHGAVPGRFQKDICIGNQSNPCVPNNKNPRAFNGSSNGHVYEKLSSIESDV

| SMILES | IC50 [1, 3] [µM] | IC50 [2, 4] [µM] | further results |
| --- | --- | --- | --- |
| O=C(CC1CCN(c2ccc(C(F)(F)F)cc2)CC1)Nc1ccc2[nH]c(=O)oc2c1 [Compound I-8] | 0.048 | – | – |
| O=C(NCC1CCN(c2ccc(C(F)(F)F)cc2)CC1)c1ccc2[nH]c(=O)oc2c1 [Compound I-11] | 0.069 | – | – |
| O=C(C=C1CCN(c2ccc(C(F)(F)F)cc2)CC1)Nc1ccc2[nH]c(=O)oc2c1 [Compound I-16] | 0.037 | – | – |
| O=C(CCC1CCN(c2ccc(C(F)(F)F)cc2)CC1)Nc1ccc(=O)[nH]c1 [Compound I-21] | 0.037 | 0.096 | – |
| O=C(Nc1ccc2[nH]c(=O)oc2c1)NC1CCN(c2ccc(C(F)(F)F)cc2)CC1 [Compound I-23] | 0.025 | 0.04 | – |
| O=C(Nc1ccc2[nH]c(=O)oc2c1)C(O)C1CCN(c2ccc(C(F)(F)F)cc2)CC1 (stereo not drawn) [Compound I-25] | 0.063 | – | – |
| O=C(Nc1ccc2[nH]c(=O)oc2c1)C(=O)C1CCN(c2ccc(C(F)(F)F)cc2)CC1 [Compound I-26] | 0.048 | – | – |
| O=C(CC1(O)CCN(c2ccc(C(F)(F)F)cc2)CC1)Nc1ccc2[nH]c(=O)oc2c1 [Compound I-30] | 0.004 | 0.077 | – |
| O=C(C=C1CCN(c2ccc(F)cc2)CC1)Nc1ccc2[nH]c(=O)oc2c1 [Compound I-33] | 0.037 | – | – |
| O=C(CC1(O)CCN(c2ccc(Cl)cc2)CC1)Nc1ccc2[nH]c(=O)oc2c1 [Compound I-34] | 0.02 | – | – |
| CC(C)c1ccc(N2CCC(O)(CC(=O)Nc3ccc4[nH]c(=O)oc4c3)CC2)cc1 [Compound I-40] | 0.015 | – | – |
| O=C(C=C1CCN(c2cc(C(F)(F)F)ccn2)CC1)Nc1ccc2[nH]c(=O)oc2c1 [Compound I-41] | 0.092 | – | – |
| O=C(Nc1ccc2[nH]c(=O)oc2c1)C(F)=C1CCN(c2ccc(C(F)(F)F)cc2)CC1 [Compound I-42] | 0.013 | 0.107 | – |
| O=C(C=C1CCN(c2ccc(C(F)(F)F)cn2)CC1)Nc1ccc2[nH]c(=O)oc2c1 [Compound I-43] | 0.009 | 0.017 | – |
| O=C(C=C1CCN(c2ccc(Cl)cn2)CC1)Nc1ccc2[nH]c(=O)oc2c1 [Compound I-45] | 0.023 | – | IC50 [2, 5]: ≤ 0.1 µM |
| O=C(CC1=CCN(c2ccc(C(F)(F)F)cc2)CC1)Nc1ccc2[nH]c(=O)oc2c1 [Compound I-53] | 0.067 | – | – |
| O=C(Nc1ccc2[nH]c(=O)oc2c1)C(=O)N1CCN(c2ccc(C(F)(F)F)cc2)CC1 [Compound I-55] | 0.007 | 0.025 | – |
| O=C(CC1(O)CCN(c2ccc(C(F)(F)F)cc2)CC1)Nc1ccc2[nH]c(=O)sc2c1 [Compound I-70] | 0.015 | 0.068 | – |
| O=C(Nc1ccc2[nH]c(=O)oc2c1)C(=O)N1CCN(c2ccc(Cl)cc2)CC1 [Compound I-73] | 0.008 | 0.015 | – |

| SMILES | IC50 [1, 3] [µM] | IC50 [2, 4] [µM] | further results |
| --- | --- | --- | --- |
| O=C(Nc1cnc2[nH]c(=O)oc2c1)C(=O)N1CCN(c2ccc(C(F)(F)F)cc2)CC1 [Compound I-74] | 0.039 | – | – |
| O=C(Nc1cnc2[nH]c(=O)oc2c1)C(=O)N1CCN(c2ccc(Cl)cc2)CC1 [Compound I-76] | – | – | IC50 [1, 6]: ≤ 0.1 µM |
| O=C(NCC1=CCN(c2ccc(C(F)(F)F)cc2)CC1)c1ccc2[nH]c(=O)sc2c1 [Compound I-78] | 0.031 | – | – |
| O=C(Nc1ccc2[nH]c(=O)[nH]c2c1)C(=O)N1CCN(c2ccc(C(F)(F)F)cc2)CC1 [Compound I-79] | 0.002 | 0.013 | – |
| O=C(CC1(O)CCN(c2ccc(F)c(C(F)(F)F)c2)CC1)Nc1ccc2[nH]c(=O)sc2c1 [Compound I-80] | 0.052 | – | – |
| O=C(CC1(O)CCN(c2ccc(F)c(C(F)(F)F)c2)CC1)Nc1ccc2[nH]c(=O)oc2c1 [Compound I-81] | 0.062 | – | – |
| O=C(Nc1ccc2[nH]c(=O)[nH]c2c1)C(=O)N1CCN(c2ccc(Cl)cc2)CC1 [Compound I-84] | 0.011 | – | IC50 [2, 5]: ≤ 0.1 µM |
| O=C(Nc1ccc2[nH]c(=O)[nH]c2c1)C(=O)N1CCN(c2ccc(F)cc2)CC1 [Compound I-85] | – | 0.067 | – |
| O=C(Nc1ccc2[nH]c(=O)oc2c1)C(=O)N1CCN(c2cccc(Cl)c2)CC1 [Compound I-86] | – | – | IC50 [2, 5]: ≤ 0.1 µM; IC50 [1, 6]: ≤ 0.1 µM |
| O=C(Nc1ccc2[nH]c(=O)oc2c1)C(=O)N1CCN(c2ccc(Br)cc2)CC1 [Compound I-87] | – | 0.012 | IC50 [1, 6]: ≤ 0.1 µM |
| O=C(Nc1cnc2[nH]c(=O)oc2c1)C(=O)N1CCN(c2ccc(F)c(Cl)c2)CC1 [Compound I-111] | – | – | IC50 [1, 6]: ≤ 0.1 µM |
| C[C@H]1CN(C(=O)C(=O)Nc2ccc3[nH]c(=O)oc3c2)CCN1c1ccc(Cl)cc1 [Compound I-176] | – | – | IC50 [1, 6]: ≤ 0.1 µM |
| C[C@@H]1CN(C(=O)C(=O)Nc2ccc3[nH]c(=O)oc3c2)CCN1c1ccc(OC(F)(F)F)cc1 [Compound I-212] | – | – | IC50 [1, 6]: ≤ 0.1 µM |
| O=C(CC1CCN(c2ccc(OC(F)(F)F)cc2)CC1)Nc1ccc2[nH]c(=O)oc2c1 [Compound I-226] | – | – | IC50 [2, 5]: ≤ 0.1 µM |
| COc1ccc(N2CCN(C(=O)C(=O)Nc3ccc4[nH]c(=O)oc4c3)CC2)cc1F [Compound I-232] | – | – | IC50 [2, 5]: ≤ 0.1 µM |
| O=C(CN1CCN(c2ccc(C(F)(F)F)cc2)CC1)Nc1ccc2[nH]c(=O)oc2c1 [Compound I-235] | – | – | IC50 [2, 5]: ≤ 0.1 µM |
| O=C(CC1CCN(c2ccc(OC(F)F)cc2)CC1)Nc1ccc2[nH]c(=O)oc2c1 [Compound I-239] | – | – | IC50 [2, 5]: ≤ 0.1 µM |
| C[C@@H]1CN(c2ccc(Cl)cn2)CCN1C(=O)C(=O)Nc1ccc2[nH]c(=O)oc2c1 [Compound I-241] | – | – | IC50 [2, 5]: ≤ 0.1 µM |

Continued, in another order:

| IC50 [1, 3] [µM] | IC50 [2, 4] [µM] | SMILES | further results |
| --- | --- | --- | --- |
| 0.087 | – | O=C(Nc1ccc2[nH]c(=O)sc2c1)C(=O)N1CCN(c2ccc(F)cc2)CC1 [Compound I-89] | – |
| 0.051 | – | O=C(Nc1cnc2[nH]c(=O)oc2c1)C(=O)N1CCN(c2ccc(Br)cc2)CC1 [Compound I-94] | – |
| 0.009 | – | O=C(Nc1ccc2[nH]c(=O)oc2c1)C(=O)N1CCN(c2ccc(F)c(Cl)c2)CC1 [Compound I-110] | – |
| 0.024 | – | O=C(NCC1CCN(c2ccc(OC(F)(F)F)cc2)CC1)c1ccc2[nH]c(=O)oc2c1 [Compound I-122] | – |
| 0.044 | – | O=C(NCC1CCN(c2ccc(Cl)c(Cl)c2)CC1)c1ccc2[nH]c(=O)oc2c1 [Compound I-138] | – |
| 0.044 | – | O=C(NCC1CCN(c2ccc(Cl)c(F)c2)CC1)c1ccc2[nH]c(=O)oc2c1 [Compound I-140] | – |
| 0.053 | – | O=C(Nc1cnc2[nH]c(=O)oc2c1)C(=O)N1CCCN(c2ccc(Cl)c(F)c2)CC1 [Compound I-155] | – |
| – | 0.021 | O=C(C=C1CCN(c2ccc(Cl)c(F)c2)CC1)Nc1ccc2[nH]c(=O)oc2c1 [Compound I-188] | – |
| – | 0.052 | O=C(C=C1CCN(c2ccc(F)c(F)c2)CC1)Nc1ccc2[nH]c(=O)oc2c1 [Compound I-192] | – |
| 0.059 | – | O=C(CC1(O)CCN(c2ccc(Cl)c(Cl)c2)CC1)Nc1cnc2[nH]c(=O)oc2c1 [Compound I-197] | – |
| – | 0.073 | O=C(Nc1ccc2[nH]c(=O)oc2c1)C(=O)N1CCN(c2ccc(C(F)(F)F)nc2)CC1 [Compound I-198] | – |
| – | 0.081 | O=C1Cc2cc(NC(=O)C(=O)N3CCN(c4ccc(Cl)c(F)c4)CC3)ccc2N1 [Compound I-200] | – |
| – | 0.074 | O=C1Cc2cc(NC(=O)C(=O)N3CCN(c4ccc(C(F)(F)F)c(F)c4)CC3)ccc2N1 [Compound I-201] | – |
